Results as given in patent publication US7671065B2, “Pyridine derivatives as potassium ion channel openers” (Janssen Pharmaceutica N.V., priority 2005, dated 2010).

target: T1, KATP channels (Homo sapiens, UniProt O60706+Q14654); test: Potassium Channel Assay (FLIPR membrane potential dye, TE671 cells); type: cell-based; settings: TE671 human medulloblastoma cells, room temperature, fluorescence change monitored for 3 minutes
T1 construct: TE671 human medulloblastoma cells were obtained from ATCC; host or cells: TE671 human medulloblastoma cells
Protocol: TE671 human medulloblastoma cells were obtained from ATCC and grown in Dulbecco's modified Eagle's medium (DMEM) supplemented with 10% fetal bovine serum, 100 U/ml penicillin and 100 U/ml streptomycine.
The day before testing, the cells were plated in black 96-well plates at 50K/well. On the day of testing, the growth media was removed, then 100 μl of FLIPR buffer (20 mM HEPES, 120 mM NaCl, 2 mM KCl, 2 mM CaCl2, 1 mM MgCl2, 5 mM Glucose) and 100 μl of Membrane Potential Assay Dye (Molecular Devices) dissolved in FLIPR buffer were added to each well. The cells were incubated at room temperature for 15 to 30 min.
The effect of test compounds on KATP channels were evaluated on a fluorometric imaging plate reader (FLIPR, Molecular Devices) at room temperature. After a baseline period, 50 μl of 5× stock solution of test compound prepared in FLIPR buffer was added and fluorescence change was monitored for 3 minutes. After this reading, glyburide, a KATP channel blocker, was added to a final concentration of 5 μM to check the specificity of the test compound as a KATP channel opener. Hyperpolarization resulting from KATP channel opening was observed as a decrease in fluorescence intensity.
Representative compounds of the present invention were tested according to the procedure described above, with results as listed in Table 7 below.

T1 sequence (Q14654 whole entry): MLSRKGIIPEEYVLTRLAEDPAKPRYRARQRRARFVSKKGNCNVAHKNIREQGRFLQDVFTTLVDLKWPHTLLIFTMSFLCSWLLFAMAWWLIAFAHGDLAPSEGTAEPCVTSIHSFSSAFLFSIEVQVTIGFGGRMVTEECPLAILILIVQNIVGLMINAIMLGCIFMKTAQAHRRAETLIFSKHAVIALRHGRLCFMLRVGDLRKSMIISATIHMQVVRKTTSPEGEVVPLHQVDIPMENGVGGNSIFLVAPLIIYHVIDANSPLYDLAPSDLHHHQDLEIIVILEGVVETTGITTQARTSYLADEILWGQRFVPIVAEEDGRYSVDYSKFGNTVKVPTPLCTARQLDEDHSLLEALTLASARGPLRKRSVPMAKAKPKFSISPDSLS
T1 sequence (O60706 1-1549 isoform O60706-2): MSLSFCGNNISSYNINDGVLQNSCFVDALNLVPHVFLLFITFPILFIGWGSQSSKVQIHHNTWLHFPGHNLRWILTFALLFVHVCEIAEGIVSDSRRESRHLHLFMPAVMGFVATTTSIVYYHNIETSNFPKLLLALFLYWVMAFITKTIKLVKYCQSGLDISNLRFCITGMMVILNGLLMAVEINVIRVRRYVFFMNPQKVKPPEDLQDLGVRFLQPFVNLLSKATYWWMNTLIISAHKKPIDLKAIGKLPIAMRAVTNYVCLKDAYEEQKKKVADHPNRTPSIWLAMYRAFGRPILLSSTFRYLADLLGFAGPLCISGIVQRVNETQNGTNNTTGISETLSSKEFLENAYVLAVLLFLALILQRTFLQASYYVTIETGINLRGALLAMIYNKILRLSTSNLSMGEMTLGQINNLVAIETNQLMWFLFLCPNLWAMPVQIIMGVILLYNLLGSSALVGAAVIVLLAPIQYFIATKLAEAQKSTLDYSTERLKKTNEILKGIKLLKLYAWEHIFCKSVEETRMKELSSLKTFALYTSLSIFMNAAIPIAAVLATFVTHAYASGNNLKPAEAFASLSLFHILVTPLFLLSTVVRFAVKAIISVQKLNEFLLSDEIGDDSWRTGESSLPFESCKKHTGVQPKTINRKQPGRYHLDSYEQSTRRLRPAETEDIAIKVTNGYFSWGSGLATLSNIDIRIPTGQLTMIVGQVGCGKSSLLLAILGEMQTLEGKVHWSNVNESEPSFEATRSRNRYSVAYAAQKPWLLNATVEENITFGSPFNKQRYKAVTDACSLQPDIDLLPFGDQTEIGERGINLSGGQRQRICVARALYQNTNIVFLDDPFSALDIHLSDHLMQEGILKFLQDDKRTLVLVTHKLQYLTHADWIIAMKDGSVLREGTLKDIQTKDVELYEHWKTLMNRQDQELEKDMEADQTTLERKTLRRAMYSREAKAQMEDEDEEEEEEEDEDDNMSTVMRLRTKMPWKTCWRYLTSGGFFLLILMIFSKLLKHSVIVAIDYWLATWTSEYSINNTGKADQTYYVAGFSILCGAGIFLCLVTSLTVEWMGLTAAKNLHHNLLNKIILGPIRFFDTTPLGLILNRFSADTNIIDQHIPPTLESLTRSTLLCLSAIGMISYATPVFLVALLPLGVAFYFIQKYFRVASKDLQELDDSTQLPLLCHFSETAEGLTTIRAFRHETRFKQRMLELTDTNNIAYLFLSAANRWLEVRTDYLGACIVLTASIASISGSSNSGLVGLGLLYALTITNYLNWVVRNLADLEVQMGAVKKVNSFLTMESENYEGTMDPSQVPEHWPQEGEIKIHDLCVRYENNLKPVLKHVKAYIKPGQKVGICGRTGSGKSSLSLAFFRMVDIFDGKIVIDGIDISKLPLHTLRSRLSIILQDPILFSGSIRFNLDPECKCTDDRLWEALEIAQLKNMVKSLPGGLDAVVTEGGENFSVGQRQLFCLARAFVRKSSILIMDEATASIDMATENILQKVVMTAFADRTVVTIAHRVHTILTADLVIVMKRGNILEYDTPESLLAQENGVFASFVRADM

| EC50 | % Stimulation | SMILES |
| --- | --- | --- |
| 5.09 µM |  | O=C(c1ccccc1)c1ccncc1C(O)c1cccc(F)c1 (stereo not shown) [Compound 47, {3-[(3-Fluoro-phenyl)-hydroxy-methyl]-pyridin-4-yl}-phenyl-methanone] |
| 14.3 µM |  | N#Cc1cccc(C(=O)c2ccncc2C(O)c2ccccc2)c1 (stereo not shown) [Compound 48, 3-[3-(Hydroxy-phenyl-methyl)-pyridine-4-carbonyl]-benzonitrile] |
| > 30 µM | 19% | N#Cc1cccc(-c2ccncc2CO)c1 [Compound 50, 3-(3-Hydroxymethyl-pyridin-4-yl)-benzonitrile] |
| > 30 µM | 48% | N#Cc1cccc(-c2ccncc2C=O)c1 [Compound 51, 3-(3-Formyl-pyridin-4-yl)-benzonitrile] |
| 17.2 µM |  | CC(O)c1cnccc1-c1cccc(C#N)c1 (stereo not shown) [Compound 52, 3-[3-(1-Hydroxy-ethyl)-pyridin-4-yl]-benzonitrile] |
| > 30 µM | 30% | COc1ccc(C=O)cc1-c1ccncc1C=O [Compound 53, 4-(5-Formyl-2-methoxy-phenyl)-pyridine-3-carbaldehyde] |
| > 30 µM | 24% | N#Cc1cccc(C2OC(O)c3cnccc32)c1 (stereo not shown) [Compound 55, 3-(3-Hydroxy-1,3-dihydro-furor[3,4-c]pyridin-1-yl)-benzonitrile] |
| > 30 µM | 33% | OCc1cnccc1C(O)c1ccccc1 (stereo not shown) [Compound 56, (3-Hydroxymethyl-pyridin-4-yl)-phenyl-methanol] |
| > 30 µM | 16% | N#Cc1cccc(C(O)c2ccncc2CO)c1 (stereo not shown) [Compound 57, 3-[Hydroxy-(3-hydroxymethyl-pyridin-4-yl)-methyl]-benzonitrile] |
| > 30 µM | 14% | COc1ccc(CO)cc1-c1ccncc1CO [Compound 58] |
| 26.8 µM |  | CC(O)c1cnccc1C(=O)c1ccccc1 (stereo not shown) [Compound 59, [3-(1-Hydroxy-ethyl)-pyridin-4-yl]-phenyl-methanone] |
| 7.97 µM |  | CC(C)C(O)c1cnccc1Br (stereo not shown) [Compound 63, 1-(4-Bromo-pyridin-3-yl)-2-methyl-propan-1-ol] |
| > 30 µM | 34% | OC1OC(c2ccccc2)c2ccncc21 (stereo not shown) [Compound 65, 1-Phenyl-1,3-dihydro-furo[3,4-c]pyridin-3-ol] |
| 8.19 µM |  | N#Cc1cccc(C2OCc3cnccc32)c1 (stereo not shown) [Compound 66, 3-(1,3-Dihydro-furor[3,4-c]pyridin-1-yl)-benzonitrile] |
